Source: PubChem BioAssay AID2060505 (Molecular Pharmacology Branch, DTP, NCI, 2025)

System: 633275-114-R-J1-PDC complex spheroids, viability
Assay: Anticancer human tumor 633275-114-R-J1-PDC patient-derived endometrial adenocarcinoma cell line growth inhibition [GQUAD]
Conditions: for IC50: curve of first compound; for viability, T/C: stronger effect = lower value; active means viability on the fitted dose curve at most 10% of control; inactive means the rest
Text: DNA G-quadruplex Stabilizer Agents in Combinations in Complex Spheroids
A high-throughput screen of multi-cell type tumor spheroids was designed to identify active combinations of DNA G-quadruplex stabilizer agents and targeted small molecules. Complex spheroids include a stromal component modeled by human endothelial cells (HUVEC) and fibroblasts modeled by human mesenchymal stem cells (MSCs). The concentration ranges selected for each drug and investigational agent were based upon clinically achievable concentrations if the clinical Cmax of the agent was known.
Compounds. The drugs and investigational agents: pidnarulex (CX-5461; NSC782164), APTO-253 (NSC789042), BRACO-19 (NSC847499), peposertib (NSC802822), ceralasertib (NSC780249), elimusertib (NSC800525), camonsertib (NSC841442), AZD-1390 (NSC803789), olaparib (NSC753686), talazoparib (NSC767125), ART-558 (NSC835418), sotorasib (NSC818433), MRTX-1133 (NSC836407), SN-38 (NSC673596), topotecan (NSC609699), etoposide (NSC141540), doxorubicin (NSC123127), gemcitabine (NSC613327), 5-fluorouracil (NSC19893), paclitaxel (NSC125973), vemurafenib (NSC761431), panobinostat (NSC761190), R-306465 (JNJ-16241199; NSC773264), adavosertib (NSC754352), TP-3654 (NSC805149), carboplatin (NSC241240), KSQ-4279 (NSC840948), and staurosporine (NSC755774) were obtained from the National Cancer Institute (NCI) Developmental Therapeutics Program Chemical Repository (34). The FDA-approved anticancer drug set is available from the NCI Developmental Therapeutics Program. […] The stock solutions were prepared in dimethyl sulfoxide (DMSO, Sigma-Aldrich, St. Louis, MO, cat. D2650) at 800-fold the tested concentration and stored at -70 degrees C prior to their use. All drugs and investigational agents were tested over a range starting from a high concentration at or near the clinical Cmax and decreasing in half-log increments. If the clinical Cmax for an agent had not been determined, the highest concentration tested was 10 microM.
2.3 Cell Culture. All cells were maintained in an incubator at 37 degrees C and 5% CO2 with 95% humidity. The PDC lines were cultured according to standard operating procedures established by the NCI PDMR. All PDCs were thawed and cultured in Matrigel-coated flasks prepared with a working solution of 1X Ham's F-12 nutrient mix, without supplementation (Invitrogen, cat. 11765054), 100 U/mL penicillin-streptomycin (Invitrogen, cat. 15140122), and 2.5% Matrigel (Corning Inc., cat. 354248) for the first three passages. The 857933-349-R-J2-PDC line was cultured in 6C/Colon 1B media, which includes advanced DMEM/F-12 (Thermo Fisher Scientific, cat. 12634028), 10 mM HEPES (Thermo Fisher Scientific, cat. 15630080), 1X GlutaMAX supplement (Thermo Fisher Scientific, cat. 35050061), 0.1 mg/mL primocin (InvivoGen, cat. ant-pm-2), 10% defined fetal bovine serum, heat inactivated (HyClone Laboratories Inc., cat. SH30070.03HI), 50% L-WRN conditioned media (ATCC, cat. CRL-3276), 1.25 mM N-Acetyl-L-cysteine (Sigma-Aldrich, cat. A9165), 10 mM nicotinamide (Sigma-Aldrich, cat. N0636), 1X B-27 supplement (Thermo Fisher Scientific, cat. 17504044), 1X N-2 supplement (Thermo Fisher Scientific, cat. 17502048), 10 microM Y-27632 dihydrochloride (Tocris Bioscience, cat. 1254), and 50 ng/mL human EGF recombinant protein (Thermo Fisher Scientific, cat. PHG0311). The 485176-168-R4-J1-PDC line was cultured in Panc media, which includes all 6C/Colon 1B media components plus 100 ng/mL human FGF-10 (Thermo Fisher Scientific, cat. 100-26), 500 nM SB-431542 (Selleckchem, cat. S1067), and gastrin (Tocris, cat. 3006).
[…]

[1] = second compound 0.0316 µM, first compound 0.0316 µM
[2] = second compound 0.0316 µM, first compound 0.1 µM
[3] = second compound 0.0316 µM, first compound 0.316 µM
[4] = second compound 0.0316 µM, first compound 1 µM
[5] = second compound 0.0316 µM, first compound 3.16 µM
[6] = second compound 0.0316 µM, first compound 10 µM
[7] = second compound 0.1 µM, first compound 0.0316 µM
[8] = second compound 0.1 µM, first compound 0.1 µM
[9] = second compound 0.1 µM, first compound 0.316 µM
[10] = second compound 0.1 µM, first compound 1 µM
[11] = second compound 0.1 µM, first compound 3.16 µM
[12] = second compound 0.1 µM, first compound 10 µM
[13] = second compound 0.316 µM, first compound 0.0316 µM
[14] = second compound 0.316 µM, first compound 0.1 µM
[15] = second compound 0.316 µM, first compound 0.316 µM
[16] = second compound 0.316 µM, first compound 1 µM
[17] = second compound 0.316 µM, first compound 3.16 µM
[18] = second compound 0.316 µM, first compound 10 µM
[19] = second compound 1 µM, first compound 0.0316 µM
[20] = second compound 1 µM, first compound 0.1 µM
[21] = second compound 1 µM, first compound 0.316 µM
[22] = second compound 1 µM, first compound 1 µM
[23] = second compound 1 µM, first compound 3.16 µM
[24] = second compound 1 µM, first compound 10 µM
[25] = second compound 3.16 µM, first compound 0.0316 µM
[26] = second compound 3.16 µM, first compound 0.1 µM
[27] = second compound 3.16 µM, first compound 0.316 µM
[28] = second compound 3.16 µM, first compound 1 µM
[29] = second compound 3.16 µM, first compound 3.16 µM
[30] = second compound 3.16 µM, first compound 10 µM
[31] = second compound 10 µM, first compound 0.0316 µM
[32] = second compound 10 µM, first compound 0.1 µM
[33] = second compound 10 µM, first compound 0.316 µM
[34] = second compound 10 µM, first compound 1 µM
[35] = second compound 10 µM, first compound 3.16 µM
[36] = second compound 10 µM, first compound 10 µM
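Further: spheroids exposed to the agents for seven days.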
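Wherever viability, T/C is given: percent of DMSO vehicle control viability which is 100%.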

O=C(c1cc(Cc2n[nH]c(=O)c3ccccc23)ccc1F)N1CCN(C(=O)C2CC2)CC1 + Cc1cnc(CNC(=O)c2c(=O)c3ccc(N4CCCN(C)CC4)nc3n3c2sc2ccccc23)cn1
9930 nM: IC50 (second compound 0.0316 µM)
43.6 nM: IC50 (second compound 0.1 µM)
< 31.6 nM: IC50 (second compound 0.316 µM) | IC50 (second compound 1 µM) | IC50 (second compound 3.16 µM) | IC50 (second compound 10 µM)
inactive: viability, T/C [1] 63% | viability, T/C [2] 60.9% | viability, T/C [3] 71.4% | viability, T/C [4] 58.2% | viability, T/C [5] 57.2% | viability, T/C [6] 50.3% | viability, T/C [7] 49.5% | viability, T/C [8] 47.9% | viability, T/C [9] 49.1% | viability, T/C [10] 48.9% | viability, T/C [11] 41.9% | viability, T/C [12] 42.8% | viability, T/C [13] 46.6% | viability, T/C [14] 42.7% | viability, T/C [15] 43.7% | viability, T/C [16] 38.9% | viability, T/C [17] 44% | viability, T/C [18] 33.7% | viability, T/C [19] 37.7% | viability, T/C [20] 35.3% | viability, T/C [21] 45.3% | viability, T/C [22] 42.6% | viability, T/C [23] 37% | viability, T/C [24] 35.1% | viability, T/C [25] 37.8% | viability, T/C [26] 38.9% | viability, T/C [27] 42.2% | viability, T/C [28] 30.9% | viability, T/C [29] 34.3% | viability, T/C [30] 31% | viability, T/C [31] 33.4% | viability, T/C [32] 31.2% | viability, T/C [33] 28.5% | viability, T/C [34] 30.9% | viability, T/C [35] 33.7% | viability, T/C [36] 29.8%

O=c1[nH]cc(F)c(=O)[nH]1 + Cc1cnc(CNC(=O)c2c(=O)c3ccc(N4CCCN(C)CC4)nc3n3c2sc2ccccc23)cn1
1120 nM: IC50 (second compound 0.1 µM)
> 10000 nM: IC50 (second compound 0.0316 µM)
inactive: viability, T/C [1] 67% | viability, T/C [2] 66.8% | viability, T/C [3] 62.7% | viability, T/C [4] 64.5% | viability, T/C [5] 58.8% | viability, T/C [6] 50.6% | viability, T/C [7] 60.6% | viability, T/C [8] 49.7% | viability, T/C [9] 55.8% | viability, T/C [10] 48.5% | viability, T/C [11] 51% | viability, T/C [12] 43.7% | viability, T/C [13] 45.1% | viability, T/C [14] 49.6% | viability, T/C [15] 45.6% | viability, T/C [16] 46.8% | viability, T/C [17] 46.1% | viability, T/C [18] 34.4% | viability, T/C [19] 40.9% | viability, T/C [20] 45.9% | viability, T/C [21] 39.4% | viability, T/C [22] 39.2% | viability, T/C [23] 41.2% | viability, T/C [24] 31.5% | viability, T/C [25] 40.7% | viability, T/C [26] 38% | viability, T/C [27] 37% | viability, T/C [28] 32.6% | viability, T/C [29] 36.7% | viability, T/C [30] 34.9% | viability, T/C [31] 35.8% | viability, T/C [32] 33.6% | viability, T/C [33] 30.6% | viability, T/C [34] 38.4% | viability, T/C [35] 30.9% | viability, T/C [36] 25%
< 31.6 nM: IC50 (second compound 0.316 µM) | IC50 (second compound 1 µM) | IC50 (second compound 3.16 µM) | IC50 (second compound 10 µM)
